Experimental data taken from PubChem BioAssay AID256 (DTP/NCI, 2004).
Where “and” joins values, the source holds several entries; their conditions need not be identical. Equal entries are not always repeated. Toxic doses and inconclusive results are not listed. The calls were made as follows: active = survival T/C of 150% or more; inactive = T/C below 125% in these data.

Test system: CD2F1 mice, L1210 leukemia ip, survival T/C
Assay: NCI In Vivo Anticancer Drug Screen. Data for tumor model L1210 Leukemia (intraperitoneal) in CD2F1 (CDF1) mice
Settings: higher = longer survival
Summary of the method: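 Compound-dosed mice with transplantable tumor versus matched vehicle controls; endpoint ratio T/C reported.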

[1] = endpoint: mean survival time, dose: 100.0 mg/kg/injection, schedule: Q01DX009 (ip), vehicle: saline with Tween-80
[2] = endpoint: mean survival time, dose: 100.0 mg/kg/injection, schedule: Q04DX003 (ip), vehicle: saline with Tween-80
[3] = endpoint: mean survival time, dose: 200.0 mg/kg/injection, schedule: Q01DX009 (ip), vehicle: saline with Tween-80
[4] = endpoint: mean survival time, dose: 200.0 mg/kg/injection, schedule: Q04DX003 (ip), vehicle: saline with Tween-80
[5] = endpoint: mean survival time, dose: 400.0 mg/kg/injection, schedule: Q01DX009 (ip), vehicle: saline with Tween-80
[6] = endpoint: mean survival time, dose: 400.0 mg/kg/injection, schedule: Q04DX003 (ip), vehicle: saline with Tween-80
[7] = endpoint: mean survival time, dose: 25.0 mg/kg/injection, schedule: Q01DX009 (ip), vehicle: Klucel (hydroxypropylcellulose) (HPC)
[8] = endpoint: mean survival time, dose: 50.0 mg/kg/injection, schedule: Q01DX009 (ip), vehicle: saline with Tween-80
[9] = endpoint: mean survival time, dose: 25.0 mg/kg/injection, schedule: Q01DX009 (ip), vehicle: saline with Tween-80
[10] = endpoint: mean survival time, dose: 25.0 mg/kg/injection, schedule: Q04DX003 (ip), vehicle: saline with Tween-80
[11] = endpoint: mean survival time, dose: 50.0 mg/kg/injection, schedule: Q04DX003 (ip), vehicle: saline with Tween-80
[12] = endpoint: mean survival time, dose: 100.0 mg/kg/injection, schedule: Q04DX002 (ip), vehicle: saline with Tween-80
[13] = endpoint: mean survival time, dose: 400.0 mg/kg/injection, schedule: Q04DX002 (ip), vehicle: saline with Tween-80

Measured: T/C

Nc1ncnc2c1ncn2C1OC(CCC(=O)NCCc2c[nH]c3ccccc23)C(O)C1O (stereo unspecified)
inactive: endpoint: median survival time, dose: 10.63 mg/kg/injection, schedule: Q01DX005 (ip), vehicle: distilled water + Tween-80 101 % of control | endpoint: median survival time, dose: 21.25 mg/kg/injection, schedule: Q01DX005 (ip), vehicle: distilled water + Tween-80 102 % of control | endpoint: median survival time, dose: 42.5 mg/kg/injection, schedule: Q01DX005 (ip), vehicle: distilled water + Tween-80 97 % of control | endpoint: median survival time, dose: 85.0 mg/kg/injection, schedule: Q01DX005 (ip), vehicle: distilled water + Tween-80 96 % of control | endpoint: median survival time, dose: 170.0 mg/kg/injection, schedule: Q01DX005 (ip), vehicle: distilled water + Tween-80 101 % of control

COC(c1ccccc1)C(c1ccccc1)[N+]1(C)CCCCC1 (stereo unspecified)
inactive: endpoint: mean survival time, dose: 75.0 mg/kg/injection, schedule: Q01DX001 (ip), vehicle: saline 97 % of control | endpoint: mean survival time, dose: 150.0 mg/kg/injection, schedule: Q01DX001 (ip), vehicle: saline 113 % of control | endpoint: mean survival time, dose: 300.0 mg/kg/injection, schedule: Q01DX001 (ip), vehicle: saline 97 % of control

CC1CCc2c(ccc3ccccc23)C1=O (stereo unspecified)
inactive: [1] 97 % of control | [2] 97 % of control | [3] 95 % of control | [4] 97 % of control | [5] 97 % of control | [6] 94 % of control

O=P(O)(O)OCC1OC(n2cnc3c(NCc4ccco4)ncnc32)C(O)C1O (stereo unspecified)
inactive: endpoint: mean survival time, dose: 12.5 mg/kg/injection, schedule: Q01DX005 (ip), vehicle: water 106 % of control | endpoint: mean survival time, dose: 25.0 mg/kg/injection, schedule: Q01DX005 (ip), vehicle: water 106 % of control | endpoint: mean survival time, dose: 50.0 mg/kg/injection, schedule: Q01DX005 (ip), vehicle: water 103 % of control | endpoint: mean survival time, dose: 100.0 mg/kg/injection, schedule: Q01DX005 (ip), vehicle: water 106 % of control

C[N+](C)(CC(=O)Nc1ccc(Cl)c(Cl)c1)Cc1ccc(Cl)c(Cl)c1
inactive: endpoint: mean survival time, dose: 6.25 mg/kg/injection, schedule: Q01DX001 (ip), vehicle: saline with Tween-80 101 % of control | endpoint: mean survival time, dose: 6.25 mg/kg/injection, schedule: Q01DX009 (ip), vehicle: saline sonified 94 % of control | endpoint: mean survival time, dose: 12.5 mg/kg/injection, schedule: Q01DX001 (ip), vehicle: saline with Tween-80 103 % of control | endpoint: mean survival time, dose: 12.5 mg/kg/injection, schedule: Q01DX009 (ip), vehicle: saline sonified 93 % of control | endpoint: mean survival time, dose: 25.0 mg/kg/injection, schedule: Q01DX001 (ip), vehicle: saline with Tween-80 105 % of control | endpoint: mean survival time, dose: 25.0 mg/kg/injection, schedule: Q01DX009 (ip), vehicle: saline sonified 86 % of control

COCC1OC2OC3C(COC)OC(OC4C(COC)OC(OC5C(COC)OC(OC6C(COC)OC(OC7C(COC)OC(OC8C(COC)OC(OC1C(O)C2O)C(O)C8O)C(O)C7O)C(O)C6O)C(O)C5O)C(O)C4O)C(O)C3O (stereo unspecified) (tested in a mixture with another compound)
inactive: [7] 98 % of control | endpoint: mean survival time, dose: 50.0 mg/kg/injection, schedule: Q01DX009 (ip), vehicle: Klucel (hydroxypropylcellulose) (HPC) 98 % of control | endpoint: mean survival time, dose: 100.0 mg/kg/injection, schedule: Q01DX009 (ip), vehicle: Klucel (hydroxypropylcellulose) (HPC) 94 % of control | endpoint: mean survival time, dose: 200.0 mg/kg/injection, schedule: Q01DX009 (ip), vehicle: Klucel (hydroxypropylcellulose) (HPC) 96 % of control | endpoint: mean survival time, dose: 400.0 mg/kg/injection, schedule: Q01DX009 (ip), vehicle: Klucel (hydroxypropylcellulose) (HPC) 93 % of control

CC#CC(=O)OC
inactive: [8] 104 % of control | [1] 104 % of control | [3] 96 % of control

Cc1ccc(S(=O)(=O)OC2CCC3(C)C(CCC4C3CCC3(C)C(C(C)CCCC(C)C)CCC43)C2)cc1 (stereo unspecified)
inactive: [2] 92 % of control | [4] 90 % of control | [6] 89 % of control

O=C1OC2CC1CCC2Br (stereo unspecified)
inactive: [2] 94 % of control | [4] 94 % of control | [6] 97 % of control

COc1cc(NC(=O)CCl)ccc(=O)c1
inactive: endpoint: mean survival time, dose: 12.5 mg/kg/injection, schedule: Q01DX009 (ip), vehicle: saline with Tween-80 106 % of control | endpoint: mean survival time, dose: 12.5 mg/kg/injection, schedule: Q04DX003 (ip), vehicle: saline with Tween-80 99 % of control | [9] 104 % of control | [10] 91 % of control | [8] 90 % of control | [11] 94 % of control

O=C(CBr)c1cccnc1
inactive: endpoint: mean survival time, dose: 6.25 mg/kg/injection, schedule: Q04DX003 (ip), vehicle: saline 95 % of control | endpoint: mean survival time, dose: 12.5 mg/kg/injection, schedule: Q04DX003 (ip), vehicle: saline 98 % of control | endpoint: mean survival time, dose: 25.0 mg/kg/injection, schedule: Q04DX003 (ip), vehicle: saline 101 % of control

Nc1ncnc2c1ccn2C1OC(CO)C2[O][Sn]([c]3ccccc3)([c]3ccccc3)[O]C21 (stereo unspecified)
inactive: endpoint: mean survival time, dose: 0.78 mg/kg/injection, schedule: Q01DX005 (ip), vehicle: other 110 % of control | endpoint: mean survival time, dose: 1.56 mg/kg/injection, schedule: Q01DX005 (ip), vehicle: other 113 % of control | endpoint: mean survival time, dose: 3.13 mg/kg/injection, schedule: Q01DX005 (ip), vehicle: other 111 % of control | endpoint: mean survival time, dose: 6.25 mg/kg/injection, schedule: Q01DX005 (ip), vehicle: other 90 % of control

COc1ccc(-n2c(C)nc3c(cnn3C3OC(CO)C(O)C3O)c2=O)cc1 (stereo unspecified)
inactive: endpoint: median survival time, dose: 12.5 mg/kg/injection, schedule: Q01DX005 (ip), vehicle: saline 103 % of control | endpoint: median survival time, dose: 25.0 mg/kg/injection, schedule: Q01DX005 (ip), vehicle: saline 102 % of control | endpoint: median survival time, dose: 50.0 mg/kg/injection, schedule: Q01DX005 (ip), vehicle: saline 105 % of control | endpoint: median survival time, dose: 100.0 mg/kg/injection, schedule: Q01DX005 (ip), vehicle: saline 111 % of control | endpoint: median survival time, dose: 200.0 mg/kg/injection, schedule: Q01DX005 (ip), vehicle: saline 103 % of control

COc1ccc(NC(=O)Oc2ccccc2C(C)C)cc1
inactive: [9] 97 % of control | endpoint: mean survival time, dose: 25.0 mg/kg/injection, schedule: Q04DX002 (ip), vehicle: saline with Tween-80 107 % of control | [8] 97 % of control | endpoint: mean survival time, dose: 50.0 mg/kg/injection, schedule: Q04DX002 (ip), vehicle: saline with Tween-80 111 % of control | [1] 97 % of control | [12] 90 % of control and 96 % of control | [13] 93 % of control

CN(C)C(=O)Nc1cc(Cl)ccc1Cl
inactive: [12] 97 % of control | endpoint: mean survival time, dose: 200.0 mg/kg/injection, schedule: Q04DX002 (ip), vehicle: saline with Tween-80 108 % of control | [13] 120 % of control

CCCOC(=O)OCCC
inactive: [10] 102 % of control | [11] 96 % of control | [1] 97 % of control | [2] 94 % of control | [3] 95 % of control | [4] 94 % of control | [5] 104 % of control | [6] 96 % of control

CC(=O)C1=CCC2C3CC=C4CC(OC#N)CCC4(C)C3CCC12C (stereo unspecified)
inactive: [1] 97 % of control | [3] 92 % of control | [5] 89 % of control

COc1cc2c(c(OC)c1OC)-c1ccc(SCc3ccccc3)c(=O)cc1[C@@H](NC(C)=O)CC2
inactive: endpoint: mean survival time, dose: 1.56 mg/kg/injection, schedule: Q01DX009 (ip), vehicle: Klucel (hydroxypropylcellulose) (HPC) 103 % of control | endpoint: mean survival time, dose: 3.12 mg/kg/injection, schedule: Q01DX009 (ip), vehicle: Klucel (hydroxypropylcellulose) (HPC) 97 % of control | endpoint: mean survival time, dose: 6.25 mg/kg/injection, schedule: Q01DX009 (ip), vehicle: Klucel (hydroxypropylcellulose) (HPC) 112 % of control | endpoint: mean survival time, dose: 12.5 mg/kg/injection, schedule: Q01DX009 (ip), vehicle: Klucel (hydroxypropylcellulose) (HPC) 121 % of control | [7] 117 % of control

CC(C)N=C1N(C(C)C)C([O-])=N[N+]1(C)C
inactive: endpoint: mean survival time, dose: 100.0 mg/kg/injection, schedule: Q01DX009 (ip), vehicle: saline 101 % of control | endpoint: mean survival time, dose: 100.0 mg/kg/injection, schedule: Q04DX003 (ip), vehicle: saline 108 % of control | endpoint: mean survival time, dose: 200.0 mg/kg/injection, schedule: Q01DX009 (ip), vehicle: saline 101 % of control | endpoint: mean survival time, dose: 200.0 mg/kg/injection, schedule: Q04DX003 (ip), vehicle: saline 96 % of control | endpoint: mean survival time, dose: 400.0 mg/kg/injection, schedule: Q01DX009 (ip), vehicle: saline 101 % of control | endpoint: mean survival time, dose: 400.0 mg/kg/injection, schedule: Q04DX003 (ip), vehicle: saline 107 % of control

Nc1nc(=O)n(CCCOc2cccc(NC(=O)c3ccccc3)c2)cc1-c1ccc(Cl)c(Cl)c1
inactive: endpoint: mean survival time, dose: 100.0 mg/kg/injection, schedule: Q01DX001 (ip), vehicle: saline with Tween-80 91 % of control | endpoint: mean survival time, dose: 200.0 mg/kg/injection, schedule: Q01DX001 (ip), vehicle: saline with Tween-80 94 % of control | endpoint: mean survival time, dose: 400.0 mg/kg/injection, schedule: Q01DX001 (ip), vehicle: saline with Tween-80 97 % of control
